Measured values taken from US9951055B2, “Thiazole-based inhibitors of scavenger receptor BI” (THE BROAD INSTITUTE, INC., priority 2012, dated 2018).

Target: T1, SR-BI (Mus musculus, UniProt Q61009)
T1 sequence (Q61009 1-509): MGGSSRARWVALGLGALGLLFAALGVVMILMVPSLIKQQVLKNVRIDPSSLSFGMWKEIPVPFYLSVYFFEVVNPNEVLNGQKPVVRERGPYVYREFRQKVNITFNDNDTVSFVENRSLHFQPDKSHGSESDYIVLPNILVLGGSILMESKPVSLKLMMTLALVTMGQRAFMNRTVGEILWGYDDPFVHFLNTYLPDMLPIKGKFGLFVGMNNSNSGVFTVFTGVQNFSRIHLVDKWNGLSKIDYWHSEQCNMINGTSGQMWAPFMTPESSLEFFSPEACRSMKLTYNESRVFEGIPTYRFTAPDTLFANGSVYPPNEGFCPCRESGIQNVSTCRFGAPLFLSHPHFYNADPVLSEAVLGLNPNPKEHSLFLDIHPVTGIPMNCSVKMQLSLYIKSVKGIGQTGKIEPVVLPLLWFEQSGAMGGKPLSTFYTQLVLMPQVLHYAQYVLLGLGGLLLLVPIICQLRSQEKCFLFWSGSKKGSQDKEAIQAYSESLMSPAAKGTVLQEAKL
Assay: Cholesterol efflux assay
Assay type: cell-based
Parameters: expressed in transfected cells
Procedure: SR-BI also mediates bidirectional flux (e.g. efflux) of unesterified or ‘free’ cholesterol (FC) between cells and HDL or other acceptors. In vivo, the greatest SR-BI-mediated selective uptake occurs in the liver and steroidogenic organs. This assay is used to determine if the compounds alter the efflux of FC to HDL.
On Day 0, 50,000 cells per well were plated in 24-well plates. On the following day, the media was removed and [^3H]cholesterol in lipoprotein-deficient media was added. On Day 1, the medium was replaced with Ham's F12 medium supplemented with 10% bovine lipoprotein deficient serum with 1 μCi/ml [1,2-^3H]cholesterol (40-60 Ci/mmol). On Day 3, the cells were washed to remove serum and incubated in Ham's F12 plus 1% fatty acid-free BSA. On Day 4, the cells were washed and pretreated with compounds for 1 hour. Subsequently, the cells were incubated for an additional 2 hours with the same concentrations of small molecules and with unlabeled HDL (final HDL concentration of 100 μg protein/ml). The medium was collected to determine released cholesterol, and the cells were lysed. The amount of [^3H]cholesterol in the medium and cells was determined using liquid scintillation counting. Total cellular [^3H]cholesterol was calculated as the sum of the radioactivity in the efflux medium plus the radioactivity in the cells and was used to calculate the [^3H]cholesterol efflux (percent of total [^3H]cholesterol released into the medium).

COCC(=O)N1CCc2cc(-c3csc(NC(=O)c4cc(OC)cc(OC)c4)n3)ccc21 [Compound 137, 3,5-Dimethoxy-N-(4-(1-(2-methoxyacetyl)indolin-5-yl)thiazol-2-yl)benzamide]
reduction of efflux of free cholesterol from cells (during the course of the assay): up to 50%
inhibition of efflux of cholesterol (listed as Probe 278): Inhibits efflux of cholesterol
inhibition of efflux of cholesterol (listed as compound of Formula (II)): inhibit efflux of cholesterol
